Several values for one entry are separate records, joined by “and”; a condition that tells them apart may be missing. Equal entries are not always repeated.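 A five-concentration, 48-hour dose response in 96-well plates underlies each endpoint, interpolated linearly between surrounding concentrations. Here, GI50 denotes the concentration required for 50% inhibition of growth.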 Activity calls are given as the source filed them. No stated cut-off is given here; in the data, active = GI50 up to about 1.1 µM and inactive = higher.
Legend:
Assay in all cases: DTP human tumour cell line panel, 48 h
[1] = test system: OVCAR-4
[2] = test system: SK-MEL-5
[3] = test system: SF-295
[4] = test system: BT-549
[5] = test system: SN12C
[6] = test system: SNB-19
[7] = test system: SF-268
[8] = test system: MDA-MB-231
[9] = test system: NCI-H460
[10] = test system: SK-MEL-2
[11] = test system: MDA-N
[12] = test system: ACHN
[13] = test system: A498
[14] = test system: LOX IMVI
[15] = test system: COLO 205
[16] = test system: Malme-3M
[17] = test system: MCF7
[18] = test system: HCT-15
[19] = test system: SK-MEL-28
[20] = test system: TK-10
[21] = test system: NCI-H23
[22] = test system: SW-620
[23] = test system: NCI/ADR-RES
[24] = test system: Hs-578T
[25] = test system: EKVX
[26] = test system: RXF 393
[27] = test system: HCC 2998
[28] = test system: PC-3
[29] = test system: OVCAR-5
[30] = test system: HOP-62
[31] = test system: UACC-62
[32] = test system: NCI-H522
[33] = test system: KM12
[34] = test system: UACC-257
[35] = test system: CCRF-CEM
[36] = test system: HT-29
[37] = test system: A549
[38] = test system: UO-31
[39] = test system: HOP-92
[40] = test system: IGROV-1
[41] = test system: MOLT-4
[42] = test system: T47D
[43] = test system: 786-0
[44] = test system: SNB-75
[45] = test system: HL-60
[46] = test system: M14
[47] = test system: RPMI-8226
[48] = test system: K562
[49] = test system: SK-OV-3
[50] = test system: NCI-H226
[51] = test system: U-251
[52] = test system: SF-539
[53] = test system: HCT-116
[54] = test system: CAKI-1
[55] = test system: MDA-MB-435
[56] = test system: DU-145
[57] = test system: SR
[58] = test system: OVCAR-3
[59] = test system: OVCAR-8

With `CC(=O)OCC1OC(SC2=N/C(=C\c3ccc(Br)s3)C(=O)N2c2ccccc2)C(OC(C)=O)C(OC(C)=O)C1OC(C)=O` (stereo unspecified) the GI50 [1] was 31.8 µM (inactive) and 41.9 µM (inactive), the GI50 [2] was 52.2 µM (inactive) and 42.9 µM (inactive) and the GI50 [3] was 39.8 µM (inactive) and 58.1 µM (inactive). The GI50 [4] was 24.4 µM (inactive) and 41.6 µM (inactive), the GI50 [5] was 50.6 µM (inactive) and the GI50 [6] was 56.4 µM (inactive) and 37.1 µM (inactive). For the same compound, the GI50 [7] was > 100 µM (inactive) and 55.8 µM (inactive), the GI50 [8] was 58.5 µM (inactive) and 42.9 µM (inactive) and the GI50 [9] was 30.1 µM (inactive) and 38.1 µM (inactive). The GI50 [10] was 16.7 µM (inactive) and 32.6 µM (inactive), the GI50 [11] was > 100 µM (inactive) and 54.6 µM (inactive) and the GI50 [12] was 32.1 µM (inactive) and 52.1 µM (inactive). The GI50 [13] was 41.1 µM (inactive) and 58.7 µM (inactive), the GI50 [14] was 47.8 µM (inactive) and 64.3 µM (inactive) and the GI50 [15] was 41.2 µM (inactive) and 57.9 µM (inactive). The GI50 [16] was 50.6 µM (inactive) and 53.6 µM (inactive), the GI50 [17] was 42 µM (inactive) and 78.9 µM (inactive) and the GI50 [18] was > 100 µM and 66.8 µM. The GI50 [19] was > 100 µM (inactive) and 82.8 µM (inactive), the GI50 [20] was 40.6 µM (inactive) and 60.3 µM (inactive) and the GI50 [21] was 19 µM (inactive) and 33.4 µM (inactive). The GI50 [22] was > 100 µM (inactive) and 92 µM (inactive), the GI50 [23] was 40.9 µM (inactive) and 43.1 µM (inactive) and the GI50 [24] was 48.1 µM (inactive) and 35.2 µM (inactive). The GI50 [25] was 34.3 µM (inactive) and 30.7 µM (inactive), the GI50 [26] was 12.1 µM (inactive) and 9.64 µM (inactive) and the GI50 [27] was 59 µM (inactive) and 36.5 µM (inactive). The GI50 [28] was 34.1 µM (inactive) and 58.5 µM (inactive), the GI50 [29] was > 100 µM (inactive) and the GI50 [30] was 55 µM (inactive) and 41.7 µM (inactive). For the same compound, the GI50 [31] was 30.6 µM (inactive) and 30.9 µM (inactive) and the GI50 [32] was 21.8 µM (inactive) and 25.5 µM (inactive).
`O=C1c2ccccc2S(=O)(=O)c2c1cccc2[N+](=O)[O-]` was tested, and the GI50 [33] was 2.15 µM (inactive), the GI50 [1] was 2.12 µM (inactive) and the GI50 [34] was 1.87 µM (inactive). The GI50 [2] was 0.643 µM (active), the GI50 [35] was 1.51 µM (inactive) and the GI50 [3] was 8.99 µM (inactive). For the same compound, the GI50 [4] was 3.45 µM (inactive), the GI50 [5] was 2.2 µM (inactive) and the GI50 [6] was > 10 µM (inactive). The GI50 [7] was 3.05 µM (inactive), the GI50 [8] was 2.29 µM (inactive) and the GI50 [36] was 2.57 µM (inactive). For the same compound, the GI50 [37] was 4.7 µM (inactive), the GI50 [9] was > 5.83 µM (inactive) and the GI50 [10] was 5.85 µM (inactive). For the same compound, the GI50 [38] was 2 µM (inactive), the GI50 [39] was 4.49 µM (inactive) and the GI50 [40] was 1.9 µM (inactive). For the same compound, the GI50 [41] was 1.85 µM (inactive), the GI50 [12] was 2.44 µM (inactive) and the GI50 [13] was 4.66 µM (inactive). For the same compound, the GI50 [14] was 2.14 µM (inactive), the GI50 [15] was 1.16 µM (inactive) and the GI50 [42] was 2.37 µM (inactive). The GI50 [16] was 1.46 µM (inactive), the GI50 [17] was 1.25 µM (inactive) and the GI50 [43] was 1.52 µM (inactive). For the same compound, the GI50 [18] was 1.35 µM, the GI50 [44] was 3.42 µM (inactive) and the GI50 [45] was 1.33 µM (inactive). For the same compound, the GI50 [46] was 1.61 µM (inactive), the GI50 [47] was 1.63 µM (inactive) and the GI50 [48] was > 10 µM (inactive). The GI50 [49] was > 6.62 µM (inactive), the GI50 [19] was 2 µM (inactive) and the GI50 [20] was 5.69 µM (inactive). For the same compound, the GI50 [50] was > 7.26 µM (inactive), the GI50 [21] was 3.5 µM (inactive) and the GI50 [51] was 2.65 µM (inactive). For the same compound, the GI50 [22] was 1.61 µM (inactive), the GI50 [23] was 2.38 µM (inactive) and the GI50 [24] was 4.25 µM (inactive). The GI50 [52] was 1.94 µM (inactive), the GI50 [53] was 1.3 µM (inactive) and the GI50 [25] was 3.35 µM (inactive). For the same compound, the GI50 [54] was 4.21 µM (inactive), the GI50 [26] was 2.9 µM (inactive) and the GI50 [55] was 1.59 µM (inactive). The GI50 [56] was 4.79 µM (inactive), the GI50 [57] was 0.902 µM (active) and the GI50 [58] was 1.22 µM (inactive). For the same compound, the GI50 [59] was 2.1 µM (inactive), the GI50 [27] was 5.77 µM (inactive) and the GI50 [28] was 3.01 µM (inactive). For the same compound, the GI50 [29] was 3.45 µM (inactive), the GI50 [30] was 5.32 µM (inactive) and the GI50 [31] was 1.72 µM (inactive). For the same compound, the GI50 [32] was 1.18 µM (inactive).
With `O=c1cn[nH]c(=S)n1/N=C/c1c[nH]c2ccccc12` the GI50 [33] was > 100 µM (inactive), the GI50 [1] was 88.1 µM (inactive) and the GI50 [34] was 63 µM (inactive). For the same compound, the GI50 [2] was > 100 µM (inactive), the GI50 [35] was 11.3 µM (inactive) and the GI50 [3] was > 100 µM (inactive). The GI50 [4] was 72.6 µM (inactive), the GI50 [6] was > 100 µM (inactive) and the GI50 [7] was > 100 µM (inactive). For the same compound, the GI50 [36] was > 100 µM (inactive), the GI50 [37] was > 100 µM (inactive) and the GI50 [9] was > 100 µM (inactive). For the same compound, the GI50 [10] was > 100 µM (inactive), the GI50 [38] was > 100 µM (inactive) and the GI50 [40] was 0.564 µM (active). For the same compound, the GI50 [41] was 37.6 µM (inactive), the GI50 [11] was 87.1 µM (inactive) and the GI50 [12] was > 100 µM (inactive). For the same compound, the GI50 [13] was > 100 µM (inactive), the GI50 [14] was 30 µM (inactive) and the GI50 [15] was > 100 µM (inactive). The GI50 [16] was > 100 µM (inactive), the GI50 [17] was 45.7 µM (inactive) and the GI50 [43] was > 100 µM (inactive). The GI50 [18] was 31.4 µM, the GI50 [45] was 14.5 µM (inactive) and the GI50 [46] was > 100 µM (inactive). For the same compound, the GI50 [47] was 49.5 µM (inactive), the GI50 [48] was 48 µM (inactive) and the GI50 [49] was > 100 µM (inactive). The GI50 [19] was > 100 µM (inactive), the GI50 [51] was > 100 µM (inactive) and the GI50 [22] was 45.3 µM (inactive). The GI50 [23] was > 100 µM (inactive), the GI50 [24] was > 100 µM (inactive) and the GI50 [52] was > 100 µM (inactive). For the same compound, the GI50 [53] was > 100 µM (inactive), the GI50 [25] was > 100 µM (inactive) and the GI50 [54] was > 100 µM (inactive). The GI50 [55] was 58.5 µM (inactive), the GI50 [56] was > 100 µM (inactive) and the GI50 [57] was 45.3 µM (inactive). For the same compound, the GI50 [58] was > 100 µM (inactive), the GI50 [59] was 32.8 µM (inactive) and the GI50 [27] was > 100 µM (inactive). For the same compound, the GI50 [28] was 77.6 µM (inactive), the GI50 [29] was > 100 µM (inactive) and the GI50 [30] was 49.3 µM (inactive). For the same compound, the GI50 [31] was 78.7 µM (inactive) and the GI50 [32] was 39.1 µM (inactive).
For `CCCCCCc1cc2cc(C(=O)Nc3ccc(F)cc3)c(=N)oc2cc1O`, the GI50 [33] was 2.92 µM (inactive), the GI50 [1] was 2.52 µM (inactive) and the GI50 [34] was 3.37 µM (inactive). For the same compound, the GI50 [2] was 1.4 µM (inactive), the GI50 [35] was 1.35 µM (inactive) and the GI50 [3] was 3.96 µM (inactive). For the same compound, the GI50 [4] was 2.66 µM (inactive), the GI50 [6] was 2.98 µM (inactive) and the GI50 [7] was 0.735 µM (active). For the same compound, the GI50 [36] was 28 µM (inactive), the GI50 [37] was 3.21 µM (inactive) and the GI50 [9] was 3.51 µM (inactive). For the same compound, the GI50 [10] was 3.13 µM (inactive), the GI50 [38] was 3.36 µM (inactive) and the GI50 [40] was 1.49 µM (inactive). The GI50 [41] was 1.93 µM (inactive), the GI50 [11] was 3.57 µM (inactive) and the GI50 [12] was 2.89 µM (inactive). For the same compound, the GI50 [13] was 5.05 µM (inactive), the GI50 [14] was 2.08 µM (inactive) and the GI50 [15] was 30.8 µM (inactive). For the same compound, the GI50 [16] was 2.32 µM (inactive), the GI50 [17] was 3.09 µM (inactive) and the GI50 [43] was 3.63 µM (inactive). The GI50 [18] was 2.51 µM, the GI50 [45] was 1.96 µM (inactive) and the GI50 [46] was 2.92 µM (inactive). The GI50 [47] was 1.17 µM (inactive), the GI50 [48] was 1.18 µM (inactive) and the GI50 [49] was 2.58 µM (inactive). For the same compound, the GI50 [19] was 3.27 µM (inactive), the GI50 [21] was 1.78 µM (inactive) and the GI50 [51] was 2.45 µM (inactive). For the same compound, the GI50 [22] was 3.25 µM (inactive), the GI50 [23] was 2.67 µM (inactive) and the GI50 [24] was 0.9 µM (active). For the same compound, the GI50 [52] was 2.17 µM (inactive), the GI50 [53] was 2.51 µM (inactive) and the GI50 [25] was 3.27 µM (inactive). The GI50 [54] was 3.09 µM (inactive), the GI50 [55] was 2.92 µM (inactive) and the GI50 [56] was 2.71 µM (inactive). For the same compound, the GI50 [57] was 2.62 µM (inactive), the GI50 [58] was 3.48 µM (inactive) and the GI50 [59] was 1.58 µM (inactive). The GI50 [27] was 5.37 µM (inactive), the GI50 [28] was 3.37 µM (inactive) and the GI50 [29] was 16 µM (inactive). The GI50 [30] was 3.28 µM (inactive), the GI50 [31] was 1.92 µM (inactive) and the GI50 [32] was 0.655 µM (active).
